The text below walks through data of patent US20240335543A1, “IONIZABLE AMINE AND ESTER LIPIDS AND LIPID NANOPARTICLES” (Beam Therapeutics Inc., priority 2021, published 2024).

SMILES strings stand for the structures.

The nature of data set [1]: RNA encapsulation efficiency of LNPs by Ribogreen assay. The format is physicochemical. As to conditions: LNP with 47.5% Ionizable Lipid: 40% cholesterol: 2.5% PEG-2000 DMG: 10% DPSC, N/P 4-8. The procedure:
(§1) LNPs were prepared with 47.5% Ionizable Lipid (e.g., a compound provided herein): 40% cholesterol: 2.5% PEG-2000 DMG: 10% DPSC and an N/P ratio range of 4-8. LNPs were formed by microfluidic mixing of the lipid and NA solutions using a Precision Nanosystems NanoAssemblr Spark or Benchtop series Instruments, according to the manufacturer's protocol. A ratio of aqueous to organic solvent of approximately 2:1 or 3:1 was maintained during mixing using differential flow rates. After mixing, LNPs were collected, diluted in phosphate buffer saline (PBS) or Tris-buffered saline (TBS) (approximately 1:1 v/v). Further buffer exchange was conducted using dialysis in PBS or TBS at 4° C. for 4 to 24 hours against a 20 kDa filter. After this initial dialysis, each individual LNP preparation was characterized via dynamic light scattering (DLS) to measure the size (e.g., diameter) and polydispersity. LNPs falling within specific diameter and polydispersity ranges were pooled, and further dialyzed against PBS or TBS at 4° C. for 1 to 4 hours against a 100 kDa dialysis cassette. After the second dialysis, LNPs were sterile filtered using 0.22 μm filter and stored at 4° C. for further use.
RNA concentration and encapsulation efficiency were determined by Ribogreen assay (BioTek Synergy LX plate reader).

The next data set concerns ALAS1 target site. The experiment in a line: In vivo base editing in liver with LNPs carrying adenine base editor mRNA and sgRNA, targeted deep sequencing. The following applies: Balb/C mice, tail vein, 0.15 mg/kg total RNA, ABE mRNA + ALAS1 sgRNA 1:1, tissues four to six days post-dose. The procedure:
Exemplary LNP preparations were selected to determine each preparation's ability to perform base editing in a Balb/C mouse model as described herein.
Lipid nanoparticle components were dissolved in 100% ethanol at specified lipid component molar ratios. mRNA encoding an adenine base editor and a chemically-modified sgRNA was dissolved at a mass ratio of 1:1 in 50 mM citrate, pH 4.0, resulting in a concentration of NA cargo of approximately 0.1 mg/mL.
LNP preparations were formulated with molar ratios of 47.5% Ionizable Lipid: 40% Cholesterol: 2.5% PEG2000-DMG: 10% DSPC total lipid to NA mass ratio of 6 to 12.
LNP preparations were formed by microfluidic mixing of the lipid and NA solutions using a Precision Nanosystems NanoAssemblr Ignite series Instruments, according to the manufacturer's protocol.
A 3:1 ratio of aqueous to organic solvent was maintained during mixing using differential flow rates. After mixing, LNP preparations were collected, diluted in TBS (approximately 7:1 v/v), and further buffer exchange was conducted using dialysis in TBS at 4° C. for 8 to 24 hours against a 20 kDa filter. After this initial dialysis, each individual LNP preparation was characterized via dynamic light scattering (DLS) to measure size and polydispersity. pKa of a subpopulation of LNP preparations was measured via TNS assay.
After dialysis, LNP preparations were sterile filtered using 0.22 micron sterile filter and stored at 4° C. for further use. In some embodiments, LNP preparations were concentrated using 100 kDa Amicon filters per manufacturer's protocol.
Male Balb/C mice aged approximately 8-12 weeks were used in the experiments described herein. […]
Age-matched mice were also used to administer vehicle (1×TBS) via tail vein injection as a control. […] Base editing was determined by performing targeted deep sequencing analysis at the ALAS1 target site using extracted genomic DNA. […] Library size and concentration was confirmed by Fragment Analyzer (Agilent) and analyzed for whole genome sequencing using an Illumina HiSeq.

Data set [2] in a line: LNP hydrodynamic diameter and polydispersity index by dynamic light scattering (DLS). In kind it is physicochemical. As to conditions: LNP with 47.5% Ionizable Lipid: 40% cholesterol: 2.5% PEG-2000 DMG: 10% DPSC, N/P 4-8. The procedure:
as §1
LNP hydrodynamic diameter and polydispersity index (PDI) were measured using high throughput dynamic light scattering (DLS) (Stunner, Unchained Labs). LNPs were diluted 1×TBS or PBS to an appropriate concentration and analyzed.

The test system of another data set is Lung. Kind of data set: Barcoded LNP biodistribution screen, fold above input (FAI) in lung. The format is in vivo. As to conditions: pooled LNP IV tail vein, mice, 4 hours post-dose. The method, then: (§2) Male and female mice aged approximately 8-12 weeks were used for studies described by the present Example. Each mouse was temporarily restrained and pooled LNP was administered IV via tail vein injection in up to five animals per experiment. Age-matched mice was also used to administer vehicle (1×TBS) via tail vein injection in up to three animals per experiment. Additional routes of administration can also be conducted including intracerebral ventricular (ICV), intracisterna manga (ICM), intrathecal (IT), intramuscular (IM), nebulization, intranasal (IN), subcutaneous (SC), intraarticular, and intradermal (ID). At 4 hours post-dose, tissues including liver, spleen, bone marrow, testes, gastrocnemius, quadricep, lung, heart, kidney, and pancreas may be collected for analysis. […]
(§3) To screen for preferential LNP delivery to a target tissues, the relative abundance of each barcode in one or more target tissues was measured and compared to the relative abundance of each barcode to its corresponding relative input abundance to determine fold above input (FAI) for each barcode. […]
(§4) The FAI is the normalized relative abundance of a barcode in a selected sample as compared to its frequency in the input. […] The FAI value of the barcode was calculated by normalizing the relative abundance in the barcode sequence counts in the isolated samples to its relative abundance in the administration input. […]

The next data set concerns Spleen. The experiment in a line: Barcoded LNP biodistribution screen, fold above input (FAI) in spleen. As to conditions: pooled LNP IV tail vein, mice, 4 hours post-dose. In kind it is in vivo. The method, then:
as §2, with “(ID).” for “(ID). At 4 hours post-dose, tissues including liver, spleen, bone marrow, testes, gastrocnemius, quadricep, lung, heart, kidney, and pancreas may be collected for analysis.”
Liver, kidney, lung, and muscle (e.g. skeletal and cardiac) tissues may be mechanically, and then enzymatically digested using a mixture of proteinases, then passed through a 70 μm filter to generate single cell suspensions. […] Tissues were treated with ACK buffer to lyse red blood cells, and then stained with fluorescently-labeled antibodies for flow cytometry and fluorescence-activated cell sorting (FACS). […]
as §3

The test system of the next data set is Liver. Kind of data set: Barcoded LNP biodistribution screen, fold above input (FAI) in liver. The following applies: pooled LNP IV tail vein, mice, 4 hours post-dose. In kind it is in vivo. The method, then:
as §2, §3, §4

For the molecule `CCCCCCC(CC)OC(=O)CCCCCCCCN(CCCCCCCCC(=O)OC(CC)CCCCCC)CCCNC(=O)c1cccc(C(=O)NCCCN(CCCCCCCCC(=O)OC(CC)CCCCCC)CCCCCCCCC(=O)OC(CC)CCCCCC)c1` (stereo not drawn) [Compound 7-1, tetra(nonan-3-yl) 9,9′,9″,9′″-(((isophthaloylbis(azanediyl))bis(propane-3,1-diyl))bis(azanetriyl))tetranonanoate], the “Mean Encapsulation Efficiency (%)” value in data set [1] was found to be 76.7%. In addition, in the data set on ALAS1 target site, the “base editing observed in liver” value was determined as 28.2%. Besides, in data set [2], the “Mean Diameter (nm)” value is 82.4 nm and the “Mean PDI” value amounted to 0.16.
Regarding `CCCCCCC(CC)OC(=O)CCCCCCCCN(CCCCCCCCC(=O)OC(CC)CCCCCC)CCCNC(=O)c1ccc(C(=O)NCCCN(CCCCCCCCC(=O)OC(CC)CCCCCC)CCCCCCCCC(=O)OC(CC)CCCCCC)cc1` (stereo not drawn) [Compound 7-2, tetra(nonan-3-yl) 9,9′,9″,9′″-(((terephthaloylbis(azanediyl))bis(propane-3,1-diyl))bis(azanetriyl))tetranonanoate], the “Mean Encapsulation Efficiency (%)” value in data set [1] was 58.4%. In the data set on ALAS1 target site, the “base editing observed in liver” value was 3.1%. Besides, in data set [2], the “Mean Diameter (nm)” value was 110.0 nm and the “Mean PDI” value is 0.08.
As to `CCCCCCC(CC)OC(=O)CCCCCCCCN(CCCCCCCCC(=O)OC(CC)CCCCCC)CCCNC(=O)c1cc(C(=O)NCCCN(CCCCCCCCC(=O)OC(CC)CCCCCC)CCCCCCCCC(=O)OC(CC)CCCCCC)cc(C(=O)OCCN(C)C)c1` (stereo not drawn) [Compound 7-5, tetra(nonan-3-yl) 9,9′,9″,9′-((((5-((2-(dimethylamino)ethoxy)carbonyl)isophthaloyl)bis(azanediyl))bis(propane-3,1-diyl))bis(azanetriyl))tetranonanoate], in data set [1], the “Mean Encapsulation Efficiency (%)” value is given as 94.7%. In addition, the “base editing observed in liver” value with ALAS1 target site was found to be 5.2%. Further, in data set [2], the “Mean Diameter (nm)” value came out at 124.6 nm and the “Mean PDI” value was 0.10.
Take `CCCCCC(CCCCC)CCOC(=O)CCCCCCCOC(=O)c1cc(C(=O)OCCCCCCCC(=O)OCCC(CCCCC)CCCCC)cc(C(=O)OCCCN(C)C)c1` [Compound 7-7, 1-(3-(dimethylamino)propyl) 3,5-bis(8-oxo-8-((3-pentyloctyl)oxy)octyl) benzene-1,3,5-tricarboxylate]: in data set [1], the “Mean Encapsulation Efficiency (%)” value stood at 75.3%. In addition, in data set [2], the “Mean Diameter (nm)” value is on record as 86.5 nm and the “Mean PDI” value worked out at 0.09.
In the case of `CCCCCC(CCCCC)CCOC(=O)CCCCCCCOC(=O)c1cc(C(=O)OCCCCCCCC(=O)OCCC(CCCCC)CCCCC)cc(C(=O)OCCCCN(C)C)c1` [Compound 7-9, 1-(4-(dimethylamino)butyl) 3,5-bis(8-oxo-8-((3-pentyloctyl)oxy)octyl) benzene-1,3,5-tricarboxylate], the “Mean Encapsulation Efficiency (%)” value in data set [1] amounted to 84.9%. In addition, in data set [2], the “Mean Diameter (nm)” value was 90.8 nm and the “Mean PDI” value was determined as 0.11.
Turning to `CCCCC/C=C\C/C=C\CCCCCCCCC(CCCCCCCC/C=C\C/C=C\CCCCC)OC(=O)CCCN(C)C` [MC3, (6Z,9Z,28Z,31Z)-heptatriaconta-6,9,28,31-tetraen-19-yl 4-(dimethylamino) butanoate], the entries for the “FAI (Lung)” value with Lung (Table 3 screening experiment) and with Lung (Table 4 screening experiment) were 0.65 and 1.26, respectively. Besides, the entries for the “FAI (Spleen)” value with Spleen (Table 3 screening experiment) and in the data set with Spleen (Table 4 screening experiment) were 0.45 and 1.71, respectively. Further, the “FAI (Liver)” value amounted to 0.31 in the data set on Liver (Table 3 screening experiment) and 1.30 in the data set with Liver (Table 4 screening experiment).
